Assay results reported in ChEMBL document CHEMBL3885861, “Open TG-GATES”.

Species on record: Rattus norvegicus
Experiment: Open TG-GATES - Regimen: Single
Assay type: toxicity, organism-based, Sprague-Dawley
Parameters: regimen Single, gender Male, age 6 weeks
Details: in vivo, po, 100 mg/kg, route gavage, dose level High; for APTT / Bas / Eos / Fbg / Hb / Ht / Lym / MCH / MCHC / MCV / Mono / Neu / PT / Plat / RBC / Ret / WBC: tissue Blood; for KIDNEY_L / KIDNEY_R / KIDNEY_TOTAL: tissue Kidney; for LIVER: tissue Liver; for A/G / ALP / ALT / AST / BUN / CRE / Ca / Cl / DBIL / GLC / IP / K / LDH / Na / PL / RALB / TBIL / TC / TG / TP / gamma-GTP: tissue Plasma

## CC1=C(/C=C/C(C)=C/C=C/C(C)=C/CO)C(C)(C)CCC1 [RETINOL]
3 h
  TERMINAL_BW: 201.1 g
  APTT: 21.6 s
  Bas: 0%
  Eos: 1%
  Fbg: 312.4 mg/dL
  Hb: 13.3 g/dL
  Ht: 38.7%
  Lym: 77.2%
  MCH: 21.4 pg
  MCHC: 34.5%
  MCV: 62 fL
  Mono: 2.6%
  Neu: 19%
  PT: 15.7 s
  Plat: 117.7 x10_4/uL
  RBC: 625.8 x10_4/ul
  Ret: 8%
  WBC: 79.7 x10_2/uL
  KIDNEY_L: 0.9 g
  KIDNEY_R: 0.9 g
  KIDNEY_TOTAL: 1.8 g
  LIVER: 9.1 g
  A/G: 1.4
  ALP: 1910.2 IU/L
  ALT: 46 IU/L
  AST: 77 IU/L
  BUN: 13.6 mg/dL
  CRE: 0.2 mg/dL
  Ca: 11 mg/dL
  Cl: 106.2 meq/L
  DBIL: 0 mg/dL
  GLC: 182 mg/dL
  IP: 9.4 mg/dL
  K: 4 meq/L
  LDH: 219.2 IU/L
  Na: 141.2 meq/L
  PL: 157.4 mg/dL
  RALB: 3.2 g/dL
  TBIL: 0.006 mg/dL
  TC: 77 mg/dL
  TG: 153 mg/dL
  TP: 5.6 g/dL
  gamma-GTP: 1.6 IU/L
6 h
  TERMINAL_BW: 205.2 g
  APTT: 20.3 s
  Bas: 0%
  Eos: 1%
  Fbg: 292.8 mg/dL
  Hb: 13.2 g/dL
  Ht: 38.6%
  Lym: 73.8%
  MCH: 21.1 pg
  MCHC: 34.2%
  MCV: 61.8 fL
  Mono: 4.8%
  Neu: 19.8%
  PT: 15 s
  Plat: 120.3 x10_4/uL
  RBC: 625.6 x10_4/ul
  Ret: 7.8%
  WBC: 110 x10_2/uL
  KIDNEY_L: 0.9 g
  KIDNEY_R: 0.9 g
  KIDNEY_TOTAL: 1.8 g
  LIVER: 9 g
  A/G: 1.3
  ALP: 1660.6 IU/L
  ALT: 37.6 IU/L
  AST: 74 IU/L
  BUN: 10.6 mg/dL
  CRE: 0.1 mg/dL
  Ca: 11.3 mg/dL
  Cl: 105.8 meq/L
  DBIL: 0.006 mg/dL
  GLC: 190.4 mg/dL
  IP: 10.6 mg/dL
  K: 4.3 meq/L
  LDH: 212.4 IU/L
  Na: 141.8 meq/L
  PL: 147.8 mg/dL
  RALB: 3.1 g/dL
  TBIL: 0.016 mg/dL
  TC: 71.8 mg/dL
  TG: 118 mg/dL
  TP: 5.4 g/dL
  gamma-GTP: 1 IU/L
9 h
  TERMINAL_BW: 198.4 g
  APTT: 21.5 s
  Bas: 0%
  Eos: 0.8%
  Fbg: 288.4 mg/dL
  Hb: 12.8 g/dL
  Ht: 36.9%
  Lym: 72.4%
  MCH: 21.3 pg
  MCHC: 34.7%
  MCV: 61.4 fL
  Mono: 3.2%
  Neu: 22.6%
  PT: 15.5 s
  Plat: 124.3 x10_4/uL
  RBC: 601 x10_4/ul
  Ret: 7.6%
  WBC: 96.3 x10_2/uL
  KIDNEY_L: 0.9 g
  KIDNEY_R: 0.9 g
  KIDNEY_TOTAL: 1.9 g
  LIVER: 8.8 g
  A/G: 1.4
  ALP: 1745.2 IU/L
  ALT: 35.2 IU/L
  AST: 69.2 IU/L
  BUN: 9.6 mg/dL
  CRE: 0.1 mg/dL
  Ca: 11 mg/dL
  Cl: 106.4 meq/L
  DBIL: 0.014 mg/dL
  GLC: 179.6 mg/dL
  IP: 10.7 mg/dL
  K: 4.3 meq/L
  LDH: 219.6 IU/L
  Na: 141.2 meq/L
  PL: 129.2 mg/dL
  RALB: 3.1 g/dL
  TBIL: 0.016 mg/dL
  TC: 65.6 mg/dL
  TG: 91.2 mg/dL
  TP: 5.3 g/dL
  gamma-GTP: 1 IU/L
24 h
  TERMINAL_BW: 207.3 g
  APTT: 23.2 s
  Bas: 0%
  Eos: 0.8%
  Fbg: 303.6 mg/dL
  Hb: 13.3 g/dL
  Ht: 38.7%
  Lym: 79.2%
  MCH: 21.2 pg
  MCHC: 34.3%
  MCV: 61.9 fL
  Mono: 2.2%
  Neu: 16.8%
  PT: 16 s
  Plat: 117.6 x10_4/uL
  RBC: 627 x10_4/ul
  Ret: 7.3%
  WBC: 93.1 x10_2/uL
  KIDNEY_L: 0.9 g
  KIDNEY_R: 0.9 g
  KIDNEY_TOTAL: 1.8 g
  LIVER: 9.6 g
  A/G: 1.2
  ALP: 1815.8 IU/L
  ALT: 47.2 IU/L
  AST: 79 IU/L
  BUN: 14.2 mg/dL
  CRE: 0.2 mg/dL
  Ca: 10.8 mg/dL
  Cl: 106.2 meq/L
  DBIL: 0.004 mg/dL
  GLC: 193.4 mg/dL
  IP: 7.4 mg/dL
  K: 4 meq/L
  LDH: 242.4 IU/L
  Na: 140.2 meq/L
  PL: 144 mg/dL
  RALB: 3 g/dL
  TBIL: 0.006 mg/dL
  TC: 68.8 mg/dL
  TG: 155.2 mg/dL
  TP: 5.5 g/dL
  gamma-GTP: 1.8 IU/L
